In US20230241014A1, “MEK-INHIBITORS FOR THE TREATMENT OR PREVENTION OF CORONAVIRUS INFECTIONS AND/OR COVID-19 CYTOKINE STORM” (priority 2020, published 2023):
Read-outs that look alike come from different tables or passages of the source.

Columns and labels:
SARS-CoV-2 (FI) [1] = assay type: cell-based; conditions: primary human ALI cultures, MOI 1.0, 50 μM and 100 μM, three cultures
SARS-CoV-2 = assay type: cell-based; conditions: CaCo-2 cells infected SARS-CoV-2 (MOI 0.1); 0.098-100 μM, 24 h
pERK1/2 = assay: Wes analysis of ERK phosphorylation in SARS-CoV-2 infected Caco-2 cells; assay type: cell-based, Homo sapiens; conditions: CaCo-2 cells infected SARS-CoV-2 (MOI 0.1); 0.098-100 μM, 24 h
Method: For the Virus yield reduction assay a 24-well plate (Greiner Bio-One, Cat. 662-160) with 95% confluent Caco-2 cells was prepared. The wells were washed once with Caco-2 infection medium DMEM (Gibco, Cat. 41965-039) supplemented with 5% FCS (Capricorn, Cat. FBS-12A), 1% Penicillin/Streptomycin, (Sigma Aldrich, Cat. P4333) and 1% Non-essential amino acids (NEAA) (Merck, Cat. K 0293). Cells were infected with SARS-CoV-2 (MOI 0.1) for 1 h in 200 μL Caco-2 infection medium per well. Afterwards the Virus inoculum was removed completely and cells were treated with 1 mL per well with different concentrations of ATR-002 (100 μM, 50 μM, 25 μM, 12.5 μM, 6.25 μM, 3.125 μM, 1.56 μM, 0.78 μM, 0.39 μM, 0.195 μM, 0.098 μM, 0 μM) in Caco-2 infection medium with 1% DMSO for 24 h at 37° C., 5% CO2. […]
Wes™ capillary electrophoresis by ProteinSimple® was used to identify and quantify pERK1/2, ERK1/2 and SARS-CoV-2 Nucleoprotein. Cell lysates were diluted with 0.1×Sample Buffer (ProteinSimple, Abingdon, Oxford, UK) to approximately 50 ng total protein per lane and analyzed using specific antibodies. […] The anti-rabbit secondary antibody (ProteinSimple, Cat. DM-001) and anti-mouse secondary antibody (ProteinSimple, Cat. DM-002) and all other reagents for WES analysis were also purchased from ProteinSimple and were ready to use.

SARS-CoV-2 (FI) [2] = assay type: cell-based
[3] = system: MxA and IL8 mRNA expression; assay: poly (I:C) stimulation of A549 cells, MxA and IL8 mRNA; conditions: A549, 100 ng/ml poly (I:C), 24 h
SARS-CoV-2 strain FI = assay: Plaque assay, infection of Vero cells with SARS-CoV-2 upon MEK inhibition; assay type: cell-based; conditions: MOI 0.01, 50 μM, 24 h, 36 h and 48 h
Method: To determine the virus titer a standard plaque assay was performed. Vero cells were infected with SARS-CoV-2 strain FI (MOI 0.01). 1 hour post infection, the cells were treated with 50 μM ATR-002 or the respective amount of DMSO as a control. The compounds were present in the culture medium during the complete infection time. After 24, 36 and 48 hpi, supernatants were collected and virus titers quantified by plaque assay below.
Vero E6 cells were seeded at 100% confluency in 6-well plates (Greiner Bio-One, Cat. 657-160). 6-fold dilutions of virus samples were prepared in Vero E6 infection medium (IMDM, Gibco, Cat. 12440-053) supplemented with 5% FCS (Capricorn, Cat. FBS-12A) and 1% Penicillin/Streptomycin (Sigma Aldrich Cat. P4333). The cells were washed once with Vero E6 infection medium before infection with 1 mL per well of the virus dilutions for 1 h at 37° C., 5% CO2. […] The virus titer was calculated based on the number of plaques per well and the respective dilution factor.

[4] = system: VSV pseudotype virus carrying the SARS-CoV-2 Spike protein; assay type: cell-based

O=C(O)c1ccc(F)c(F)c1Nc1ccc(I)cc1Cl [ATR-002, 2-(2-chloro-4-iodophenylamino)-N-3,4-difluoro benzoic acid]
production of progeny viral particles (SARS-CoV-2 (FI) [1]): completely blocked the production of progeny viral particles | inhibition of SARS-CoV-2 (virus titer) (SARS-CoV-2): seen at concentrations of 50 and 100 μM | inhibition of nucleocapsid protein (viral marker) (SARS-CoV-2): seen at concentrations of 50 and 100 μM | inhibition of ERK (phosphorylation) (pERK1/2): seen at concentrations of 50 and 100 μM | duration of the effect on progeny viral particles (SARS-CoV-2 (FI) [2]; Calu-3, MOI 0.01, 10-150 μM): maintained over the total infection time of 72 hours | production of progeny viral particles (SARS-CoV-2 (FI) [2]; Calu-3, MOI 0.01, 10-150 μM, 24, 48, 72 h): concentration dependent decrease | cell damage of infected cells (light microscopy) (SARS-CoV-2 (FI) [2]; Calu-3 infected with SARS-CoV-2): did not show the characteristic cell damage | MxA mRNA expression (anti-viral interferon system) [3]: constant expression of MxA mRNA | IL8 mRNA expression ([3]; even low concentrations): strong reduction | viral load (plaque assay) (SARS-CoV-2 strain FI): lower viral load than control cells | internalization of the VSV pseudotype virus (GFP positive cells) [4]: reduction in the internalization
